target: T1, human CRHR2-alpha (Homo sapiens, UniProt Q13324); experiment: cAMP functional assay for human CRHR2 (LANCE Ultra cAMP, TR-FRET); format: cell-based; settings: CHO-K1 cells expressing human CRHR2-alpha, agonist human urocortin2 at EC80, cAMP; read-out: IC50 against CRHR2
T1 sequence (Q13324 1-411): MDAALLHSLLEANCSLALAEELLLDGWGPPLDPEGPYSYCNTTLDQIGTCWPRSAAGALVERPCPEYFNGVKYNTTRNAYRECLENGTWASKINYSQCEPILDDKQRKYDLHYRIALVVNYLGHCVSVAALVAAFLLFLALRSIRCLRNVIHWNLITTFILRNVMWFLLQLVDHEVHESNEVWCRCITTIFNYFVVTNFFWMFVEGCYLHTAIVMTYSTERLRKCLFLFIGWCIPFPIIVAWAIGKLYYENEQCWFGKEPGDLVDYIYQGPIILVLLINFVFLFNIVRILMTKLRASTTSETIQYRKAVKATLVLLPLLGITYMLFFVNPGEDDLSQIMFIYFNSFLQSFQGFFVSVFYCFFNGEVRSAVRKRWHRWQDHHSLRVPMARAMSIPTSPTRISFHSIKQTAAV
How it was run: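 CHO-K1 cells stably expressing each receptor, serum-starved and cryopreserved, were preincubated with compound 30 min at 25° C in HBSS buffer with 0.5 mM IBMX, pH 7.4, then stimulated 30 min with EC80 agonist (urocortin2 for CRHR2, CRF for CRHR1). cAMP read by TR-FRET; IC50 from percent-inhibition curves.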

IC50, < 300 nM:
CCc1nc2ncc(-n3c(=O)n(C[C@H]4CC[C@H](NC(=O)c5cc(Cl)cnc5C)CC4)c4ccccc43)cc2o1 [Example 355, 5-chloro-N-((1r,4r)-4-((3-(2-ethyloxazolo[4,5-b]pyridin-6-yl)-2-oxo-2,3-dihydro-1H-benzo[d]imidazol-1-yl)methyl)cyclohexyl)-2-methylnicotinamide]
Cc1ncc(Cl)cc1C(=O)N[C@H]1CC[C@H](Cn2c(=O)n(-c3ccc(-c4ccn[nH]4)cc3)c3ccccc32)CC1 [Example 469, N-((1r,4r)-4-((3-(4-(1H-pyrazol-5-yl)phenyl)-2-oxo-2,3-dihydro-1H-benzo[d]imidazol-1-yl)methyl)cyclo-hexyl)-5-chloro-2-methylnicotinamide]
Cc1ccc(-n2c(=O)n(C[C@H]3CC[C@H](NC(=O)c4cc(Cl)cnc4C)CC3)c3cc(F)ccc32)cn1 [Example 123, 5-chloro-N-((1r,4r)-4-((6-fluoro-3-(6-methylpyridin-3-yl)-2-oxo-2,3-dihydro-1H-benzo[d]imidazol-1-yl)methyl)cyclo-hexyl)-2-methylnicotinamide]
Cc1ncc(Cl)cc1C(=O)N[C@H]1CC[C@H](Cn2c(=O)n(-c3ccn4cncc4c3)c3ccccc32)CC1 [Example 296, 5-chloro-N-((1r,4r)-4-((3-(imidazo[1,5-a]pyridin-7-yl)-2-oxo-2,3-dihydro-1H-benzo[d]imidazol-1-yl)methyl)cyclohexyl)-2-methylnicotinamide]
O=C(N[C@H]1CC[C@H](Cn2c(=O)n(-c3cncc4ccccc34)c3ccccc32)CC1)c1cc(Cl)cnc1C(F)F [Example 418, 5-chloro-2-(difluoromethyl)-N-((1r,4r)-4-((3-(isoquinolin-4-yl)-2-oxo-2,3-dihydro-1H-benzo [d]imidazol-1-yl)methyl)cyclo-hexyl)nicotinamide]
O=C(N[C@H]1CC[C@H](Cn2c(=O)n(-c3ccc(N4CCCCC4=O)nc3)c3ccccc32)CC1)c1cc(Cl)cnc1C(F)F [Example 509, 5-chloro-2-(difluoromethyl)-N-((1r,4r)-4-((2-oxo-3-(6-(2-oxopiperidin-1-yl)pyridin-3-yl)-2,3-dihydro-1H-benzo[d]imidazol-1-yl)methyl)cyclohexyl)nicotinamide]
Cc1cc(-n2c(=O)n(C[C@H]3CC[C@H](NC(=O)c4cc(Cl)cnc4C)CC3)c3ccccc32)cnc1C [Example 119, 5-chloro-N-((1r,4r)-4-((3-(5,6-dimethylpyridin-3-yl)-2-oxo-2,3-dihydro-1H-benzo[d]imidazol-1-yl)methyl)cyclo-hexyl)-2-methylnicotinamide]
Cc1ncc(Cl)cc1C(=O)N[C@H]1CC[C@H](Cn2c(=O)n(-c3ccc(-n4ccnn4)cc3)c3ccccc32)CC1 [Example 470, N-((1r,4r)-4-((3-(4-(1H-1,2,3-triazol-1-yl)phenyl)-2-oxo-2,3-dihydro-1H-benzo[d]imidazol-1-yl)methyl)cyclohexyl)-5-chloro-2-methylnicotinamide]
CNC(=O)c1ccc(-n2c(=O)n(C[C@H]3CC[C@H](NC(=O)c4cc(Cl)cnc4C(F)F)CC3)c3cc(OC)ccc32)cn1 [Example 528, 5-(3-(((1r,4r)-4-(5-chloro-2-(difluoromethyl)nicotinamido)cyclohexyl)methyl)-5-methoxy-2-oxo-2,3-dihydro-1H-benzo [d]imidazol-1-yl)-N-methylpicolinamide]
CNC(=O)c1ccc(-n2c(=O)n(C[C@H]3CC[C@H](NC(=O)c4cc(Cl)cnc4Cl)CC3)c3ccccc32)cn1 [Example 542, 5-(3-(((1r,4r)-4-(2,5-dichloronicotinamido)cyclohexyl)methyl)-2-oxo-2,3-dihydro-1H-benzo[d]imidazol-1-yl)-N-methylpicolinamide]
O=C(N[C@H]1CC[C@H](Cn2c(=O)n(-c3ccc(NCC(F)F)nc3)c3ccccc32)CC1)c1cc(Cl)cnc1C(F)F [Example 464, 5-chloro-N-((1r,4r)-4-((3-(6-((2,2-difluoroethyl)amino)pyridin-3-yl)-2-oxo-2,3-dihydro-1H-benzo[d]imidazol-1-yl)methyl)cyclohexyl)-2-(difluoromethyl)nicotinamide]
Cc1ncc(Cl)cc1C(=O)N[C@H]1CC[C@H](Cn2c(=O)n(-c3ccnc(N4CCN(C)C4=O)c3)c3ccccc32)CC1 [Example 690, 5-chloro-2-methyl-N-((1r,4r)-4-((3-(2-(3-methyl-2-oxoimi-dazolidin-1-yl)pyridin-4-yl)-2-oxo-2,3-dihydro-1H-benzo [d]imidazol-1-yl)methyl)cyclo-hexyl)nicotinamide]
Cc1ncc(Cl)cc1C(=O)N[C@H]1CC[C@H](Cn2c(=O)n(-c3ccc4ncoc4c3)c3ccccc32)CC1 [Example 153, N-((1r,4r)-4-((3-(benzo[d]oxazol-6-yl)-2-oxo-2,3-dihydro-1H-benzo[d]imidazol-1-yl)methyl)cyclo-hexyl)-5-chloro-2-methylnicotinamide]
COc1ccc(-n2c(=O)n(C[C@H]3CC[C@H](NC(=O)c4cc(Br)cnc4C)CC3)c3ccccc32)cn1 [Example 227, 5-bromo-N-((1r,4r)-4-((3-(6-methoxypyridin-3-yl)-2-oxo-2,3-dihydro-1H-benzo[d]imidazol-1-yl)methyl)cyclo-hexyl)-2-methylnicotinamide]
O=C(N[C@H]1CC[C@H](Cn2c(=O)n(Cc3ccncc3)c3ccccc32)CC1)c1cc(Cl)cnc1C(F)(F)F [Example 280, 5-chloro-N-((1r,4r)-4-((2-oxo-3-(pyridin-4-ylmethyl)-2,3-dihydro-1H-benzo[d]imidazol-1-yl)methyl)cyclohexyl)-2-(trifluoromethyl)nicotinamide]
Cc1ncc(Cl)cc1C(=O)N[C@H]1CC[C@H](Cn2c(=O)n(-c3ccc4c(c3)cc(C(N)=O)n4C)c3ccccc32)CC1 [Example 403, 5-(3-(((1r,4r)-4-(5-chloro-2-methylnicotinamido)cyclo-hexyl)methyl)-2-oxo-2,3-dihydro-1H-benzo[d]imidazol-1-yl)-1-methyl-1H-indole-2-carboxamide]
Cc1cc2cc(-n3c(=O)n(C[C@H]4CC[C@H](NC(=O)c5cc(Cl)cnc5C(F)F)CC4)c4ccccc43)cnc2[nH]1 [Example 673, 5-chloro-2-(difluoromethyl)-N-((1r,4r)-4-((3-(2-methyl-1H-pyrrolo[2,3-b]pyridin-5-yl)-2-oxo-2,3-dihydro-1H-benzo[d]imidazol-1-yl)methyl)cyclohexyl)nicotinamide]
Cc1ncc(Cl)cc1C(=O)N[C@H]1CC[C@H](Cn2c(=O)n(-c3cnc4c(cnn4C)c3)c3ccccc32)CC1 [Example 163, 5-chloro-2-methyl-N-((1r,4r)-4-((3-(1-methyl-1H-pyrazolo [3,4-b]pyridin-5-yl)-2-oxo-2,3-dihydro-1H-benzo[d]imidazol-1-yl)methyl)cyclo-hexyl)nicotinamide]
